The values that follow come from patent publication US20240384321A1, “Microfluidic chip and use thereof for continuous monitoring of bacterium intended for motion, growth and morphology detection” (National Health Research Institutes, priority 2023, published 2024).

The test system of test [1] is E. coli GFP. Briefly: Antibiotic susceptibility testing in the microfluidic chip (fluorescence, MIC determination). Type of test: cell-based, Escherichia coli (ATCC 25922 GFP). As to the method:
Escherichia coli (E. coli) (ATCC 25922 GFP™) was chosen as a model bacterium. Ampicillin and gentamicin were chosen as model antibiotic drugs. The operational parameters were optimized to isolate 0 or 1 bacterium in each chamber. For the determination of minimum inhibitory concentration (MIC), fluorescence intensity of the sample was measured via inverted fluorescence microscope at 2 hours intervals, during 6 hours of incubation in a temperature-controlled chamber at 37° C. The time-dependent morpho-structural variabilities of bacterium were characterized by a software. […] 0.25 μg/ml GM inhibits bulky E. coli GFP growth on agar plates and microfluidic chip. On the contrary, 0.1 μg/ml GM inhibits growth of ˜90% E. coli GFP in the microfluidic chip, and resistant subpopulation continue growing after 4 h. The present invention shed light on breakthrough development in bacterial resistance research and rapid drug testing applications. […]
Step 3, The morpho-structural changes and Dynamic phenotypic analysis of bacterium were evaluated by microscopy methods. […] In this and the following examples, E. coli is monitored during the first 6 hours and after 21 hours of incubation at 37° C. inside a temperature-controlled chamber placed on the microscope-stage. […]

The test system of test [2] is E. coli GFP. Briefly: Antibiotic susceptibility of bulky bacteria on agar plates (E-test). Type of test: cell-based, Escherichia coli (ATCC 25922 GFP). As to the method:
Escherichia coli (E. coli) (ATCC 25922 GFP™) was chosen as a model bacterium. Ampicillin and gentamicin were chosen as model antibiotic drugs. The operational parameters were optimized to isolate 0 or 1 bacterium in each chamber. For the determination of minimum inhibitory concentration (MIC), fluorescence intensity of the sample was measured via inverted fluorescence microscope at 2 hours intervals, during 6 hours of incubation in a temperature-controlled chamber at 37° C. The time-dependent morpho-structural variabilities of bacterium were characterized by a software. […] 0.25 μg/ml GM inhibits bulky E. coli GFP growth on agar plates and microfluidic chip. On the contrary, 0.1 μg/ml GM inhibits growth of ˜90% E. coli GFP in the microfluidic chip, and resistant subpopulation continue growing after 4 h. The present invention shed light on breakthrough development in bacterial resistance research and rapid drug testing applications.
The multi-parametric motion-analysis incorporating line length, elongation ratio, circularity, line speed, path speed and intensity are found useful for the identification of resistance and susceptibility of E. coli in 4 hours. […] However, resistant subpopulation continues growing after 4 h.

On to gentamicin [GM], for which, in the test with E. coli GFP [1] (0.1 μg/ml GM, resistant subpopulation continues growing after 4 h), the “share of E. coli GFP whose growth is inhibited” value is approximately 90%. The “concentration that inhibits bulky E. coli GFP growth (MIC)” value in the test on E. coli GFP [1] (bulky bacteria, 37° C., 6 hours incubation) came out at 0.25 µg/mL; in the test on E. coli GFP [2], 0.25 µg/mL.
